Key:
Cercospora beticola = experiment: In vivo fungicidal activity: Sugar Beet Cercospora (SBC); details: 200 ppm, sprayed before inoculation; note: ranges in brackets are in %
Plasmopara viticola = experiment: In vivo fungicidal activity: Grape Downy Mildew (GDM); details: 200 ppm, sprayed before inoculation; note: ranges in brackets are in %
[1] = test system: Pyricularia grisea f. sp. oryzae; type: in vivo; details: 200 ppm, sprayed before inoculation, Rice Blast
Rhizoctonia solani = experiment: In vitro fungicidal activity: growth inhibition (RHIZ SO); type: cell-based; details: 25 ppm, 3-7 days at 22° C., nutrient broth; note: ranges in brackets are in %
Experimental: (§1) Test compounds are dissolved in acetone then diluted with deionize water (9 parts water: 1 part acetone), and dispersed into cell well plates containing a suspension of ground fungal mycelium in a nutrient broth resulting in a final concentration of 25 ppm of the test compound. Assay plates are incubated for 3-7 days at 22° C. Growth inhibition is measured visually and is rated using the following scale: […]

[2] = test system: Pseudocercosporella herpotrichoides; experiment: In vitro fungicidal activity: growth inhibition (PSDC HE); type: cell-based; details: 25 ppm, 3-7 days at 22° C., nutrient broth; note: ranges in brackets are in %
Experimental: as §1

Venturia inaequalis = experiment: In vivo fungicidal activity: Apple Scab (AS); details: 200 ppm, sprayed before inoculation; note: ranges in brackets are in %
Alternaria solani = experiment: In vivo fungicidal activity: Tomato Early Blight (TEB); details: 200 ppm, sprayed before inoculation; note: ranges in brackets are in %
Septoria nodorum = experiment: In vivo fungicidal activity: Wheat Septoria nodorum Blotch (WSN); details: 200 ppm, sprayed before inoculation
Experimental: Test compounds are dissolved in acetone and diluted with deionized water (95 parts water to 5 parts acetone) containing 0.05% TWEEN 20®, a polyoxyethylene sorbitan monolaurate surfactant manufactured by Atlas Chemical Industries, to give a concentration of 200 ppm.
The plants are sprayed with the test solutions, dried and inoculated with fungi later the same day. When disease symptom development is optimal, the plants are rated for disease control according to the rating scale shown below. Each test contains inoculated treated plants, inoculated untreated plants and a inoculated plants treated with reference fungicides.

Botrytis cinerea = experiment: In vivo fungicidal activity: Pepper Botrytis (PB); details: 200 ppm, sprayed before inoculation; note: ranges in brackets are in %
[3] = test system: Erysiphe graminis f. sp. tritici; experiment: In vivo fungicidal activity: Wheat Powdery Mildew (WPM); details: 200 ppm, sprayed before inoculation; note: ranges in brackets are in %
Pythium ultimum = experiment: In vitro fungicidal activity: growth inhibition (PYTH UL); type: cell-based; details: 25 ppm, 3-7 days at 22° C., nutrient broth; note: ranges in brackets are in %
Experimental: as §1

[4] = test system: Fusarium oxysporium f. sp. cucumerinum; experiment: In vitro fungicidal activity: growth inhibition (FUS OXC); type: cell-based; details: 25 ppm, 3-7 days at 22° C., nutrient broth; note: ranges in brackets are in %
Experimental: as §1

Structure (SMILES)	disease control rating, SBC (Cercospora beticola)	disease control rating, GDM (Plasmopara viticola)	disease control rating, RB [1]	growth inhibition rating, RHIZ SO (Rhizoctonia solani)	growth inhibition rating, PSDC HE [2]	disease control rating, AS (Venturia inaequalis)	disease control rating, TEB (Alternaria solani)	disease control rating, WSN (Septoria nodorum)	disease control rating, PB (Botrytis cinerea)	disease control rating, WPM [3]	growth inhibition rating, PYTH UL (Pythium ultimum)	growth inhibition rating, FUS OXC [4]
CN(C1CCCCC1)C1CCC2(CCC(C(C)(C)C)CC2)C1 (stereo not drawn) [Example 9]	4 (45-59)	2 (15-29)	0 (0)	9 (100)	7 (90-99)	8 (96-99)	0 (0)	6 (75-89)	8 (96-99)	7 (90-95)	7 (90-99)	0 (0)
CCCCC(CC)NC1CCC2(CCC(C(C)(C)C)CC2)C1 (stereo not drawn) [Example 2]	4 (45-59)	8 (96-99)	0 (0)	7 (90-99)	9 (100)	8 (96-99)	0 (0)	0 (0)	9 (100)	8 (96-99)	9 (100)	0 (0)
CC(C)CNC1CCC2(CCC(C(C)(C)C)CC2)C1 (stereo not drawn) [Example 8]	6 (75-89)	0 (0)	0 (0)	9 (100)	7 (90-99)	8 (96-99)	0 (0)	4 (45-59)	6 (75-89)	5 (60-74)	7 (90-99)	0 (0)
CC1CCC(NC2CCC3(CCC(C(C)(C)C)CC3)C2)CC1 (stereo not drawn) [Example 7]	8 (96-99)	3 (30-44)	0 (0)	9 (100)	7 (90-99)	4 (45-59)	4 (45-59)	7 (90-95)	7 (90-95)	7 (90-95)	7 (90-99)	0 (0)
CC1CCN(C2CCC3(CCC(C(C)(C)C)CC3)C2)CC1 (stereo not drawn) [Example 1]	6 (75-89)	9 (100)	0 (0)	9 (100)	7 (90-99)	6 (75-89)	0 (0)	7 (90-95)	8 (96-99)	7 (90-95)	7 (90-99)	0 (0)
CC(C)(C)C1CCC2(CCC(NC3CCCC3)C2)CC1 (stereo not drawn) [Example 10]	6 (75-89)	5 (60-74)	0 (0)	9 (100)	9 (100)	8 (96-99)	2 (15-29)	7 (90-95)	6 (75-89)	6 (75-89)	9 (100)	0 (0)

From patent US5849802A, “Fungicidal spirocyclic amines” (American Cyanamid Company, priority 1996, dated 1998)
